Legend:
[1] = test system: U937 cells adhered to HUVEC stimulated by TNFα; experiment: Inhibitory effect on cell adhesion, stimulation by TNFα; format: cell-based; conditions: Homo sapiens, compound at 1 μM, read-out: Inhibitory activity against cell adhesion, Percent inhibition (%), Stimulation by TNFα
Procedure: (§1) This test was conducted by reference to the method of Ross et al. (J. Biol. Chem., 267, 8537–8543(1992). More specifically, after human umbilical venous endothelial cells (HUVEC) were cultured on a 48-well plate to confluent growth, IL-1β or TNFα was added thereto. After culturing for 5 hours, U937, which is a human monocytic/histocytic cell fluorescence-labeled with PKH2(product of Dainippon Pharmaceutical Co., Ltd.), was added in a proportion of 1×10^6 cells per well. After the plate was left at rest at room temperature for 1 hour, unadhered U937 was washed out and lysed in 1% Triton X-100 to measure a remaining fluorescence intensity (excitation wavelength: 480 nm; measuring wavelength: 530 nm). HUVEC and U937 were cultured in EGM-2 (product of Sanko Junyaku K. K.) and 10% FCS-containing RPMI1640, respectively. Each test agent was added to HUVEC upon the addition of IL-1β or TNFα and to U937 24 hours prior to the cell adhesion test. The inhibitory activity was calculated out according to the equation [100−(C−B)/(A−B)×100(%)], wherein A is the number of U937 cells adhered to HUVEC stimulated by IL-1β or TNFα when no test agent was added, B is the number of U937 cells adhered to HUVEC not stimulated by IL-1β or TNFα when no test agent was added, and C is the number of U937 cells adhered to HUVEC stimulated by IL-1β or TNFα when the test agent was added. As control compounds, Test Compound 1 described in Japanese Patent Application Laid-Open No. 9–143075 and dilazep described in Japanese Patent Application Laid-Open No. 11–92382 were simultaneously evaluated.

[2] = test system: U937 cells adhered to HUVEC stimulated by IL-1β; experiment: Inhibitory effect on cell adhesion, stimulation by IL-1β; format: cell-based; conditions: Homo sapiens, compound at 1 μM, read-out: Inhibitory activity against cell adhesion, Percent inhibition (%), Stimulation by IL-1β
Procedure: as §1

| Compound | inhibition at 1 µM [1] | inhibition at 1 µM [2] |
| --- | --- | --- |
| COc1cc(C(=O)OCCCN2CCCN(CCCOC(=O)c3cc(OC)c(OC)c(OC)c3)CC2)cc(OC)c1OC [Dilazep, dilazep, reference compound] | 12% | 0% |
| COc1cc2cc(CCN3CCCN(CCc4ccc5c(OC)c(OC)c(OC)cc5c4)CC3)ccc2c(OC)c1OC [Example 6, N,N′-bis[2-(5,6,7-trimethoxynaphthalen-2-yl)ethyl]homopiperazine] | 69% | 57% |
| COc1cc2nc(CN3CCN(Cc4nc5cc(OC)c(OC)c(OC)c5s4)CC3)sc2c(OC)c1OC [Example 32, N,N′-bis[(5,6,7-trimethoxybenzothiazol-2-yl)methyl]piperazine] | 52% | 54% |
| COc1cc2nc(CN3CCCN(Cc4nc5cc(OC)c(OC)c(OC)c5s4)CC3)sc2c(OC)c1OC [Example 33, N,N′-bis[(5,6,7-trimethoxybenzothiazol-2-yl)methyl]homopiperazine] | 79% | 64% |
| COc1cc2sc(CN3CCCN(Cc4cc5c(OC)c(OC)c(OC)cc5s4)CC3)cc2c(OC)c1OC [Example 41, N,N′-bis[(4,5,6-trimethoxybenzothiophen-2-yl)methyl]homopiperazine] | 27% | 52% |

From patent US7135473B2, “Cyclic diamine compound with condensed-ring groups” (Kowa Co., Ltd., priority 2001, dated 2006)
